Assay results as given in ChEMBL document CHEMBL1649315, “Extended-spectrum cephalosporinase in Acinetobacter baumannii” (Antimicrob Agents Chemother, 2010).
In brackets after ≈: the same amount, converted by molar mass.

Experiments:
[1] = test system: Escherichia coli; assay: Antimicrobial activity against Escherichia coli TOP10 harboring pADC-11 plasmid carrying entire blaAmpC gene with alanine residue insertion at 215 position by Etest method; format: functional
[2] = test system: Escherichia coli; assay: Antimicrobial activity against Escherichia coli TOP10 harboring pADC-33 plasmid carrying entire blaAmpC gene with alanine residue deletion at 215 position by Etest method in presence of Tazobactam; format: functional
[3] = test system: Acinetobacter baumannii; assay: Ratio of Kcat to Km for Acinetobacter baumannii ADC-33 beta-lactamase to Kcat to Km for Acinetobacter baumannii ADC-11 beta-lactamase
[4] = test system: Escherichia coli; assay: Antimicrobial activity against Escherichia coli TOP10 harboring pADC-11 plasmid carrying entire blaAmpC gene with alanine residue deletion at 215 position and R210P substitution by Etest method in presence of Tazobactam; format: functional
[5] = test system: Escherichia coli; assay: Antimicrobial activity against Escherichia coli TOP10 harboring pTOPO plasmid by Etest method in presence of Tazobactam; format: functional
[6] = test system: Escherichia coli; assay: Antimicrobial activity against Escherichia coli TOP10 harboring pADC-33 plasmid by Etest method in presence of Tazobactam; format: functional
[7] = test system: Escherichia coli; assay: Antimicrobial activity against Escherichia coli TOP10 harboring pADC-33 plasmid with entire blaAmpC gene by Etest method; format: functional
[8] = test system: Escherichia coli; assay: Antimicrobial activity against Escherichia coli TOP10 harboring pADC-33 plasmid carrying entire blaAmpC gene by Etest method in presence of Tazobactam; format: functional
[9] = test system: Acinetobacter baumannii; assay: Antimicrobial activity against Acinetobacter baumannii AYE expressing VEB-1 gene by Etest method; format: functional
[10] = test system: Escherichia coli; assay: Antimicrobial activity against Escherichia coli TOP10 harboring pADC-11 plasmid by Etest method; format: functional
[11] = test system: Acinetobacter baumannii; assay: Antimicrobial activity against Acinetobacter baumannii CIP70.10 by Etest method; format: functional
[12] = test system: Acinetobacter baumannii; assay: Antimicrobial activity against Acinetobacter baumannii CIP70.10 by Etest method in presence of Tazobactam; format: functional
[13] = test system: Escherichia coli; assay: Antimicrobial activity against Escherichia coli TOP10 harboring pADC-50 plasmid by Etest method; format: functional
[14] = test system: Escherichia coli; assay: Antimicrobial activity against Escherichia coli TOP10 harboring pADC-33 plasmid carrying entire blaAmpC gene with alanine residue deletion at 215 position and R210P substitution by Etest method in presence of Tazobactam; format: functional
[15] = test system: Acinetobacter baumannii; assay: Antimicrobial activity against Acinetobacter baumannii AYE expressing VEB-1 gene by Etest method in presence of Tazobactam; format: functional
[16] = test system: Escherichia coli; assay: Antimicrobial activity against Escherichia coli TOP10 harboring pADC-11 plasmid carrying entire blaAmpC gene with alanine residue insertion at 215 position and R210P substitution by Etest method; format: functional
[17] = test system: Escherichia coli; assay: Antimicrobial activity against Escherichia coli TOP10 harboring pADC-11 plasmid carrying entire blaAmpC gene with alanine residue insertion at 215 position by Etest method in presence of Tazobactam; format: functional
[18] = test system: Escherichia coli; assay: Antimicrobial activity against Escherichia coli TOP10 harboring pADC-33 plasmid with entire blaAmpC gene with alanine residue deletion at 215 position by Etest method; format: functional
[19] = test system: Escherichia coli; assay: Antimicrobial activity against Escherichia coli TOP10 harboring pADC-11 plasmid with entire blaAmpC gene by Etest method; format: functional
[20] = test system: Escherichia coli; assay: Antimicrobial activity against Escherichia coli TOP10 harboring pADC-11 plasmid by Etest method in presence of Tazobactam; format: functional
[21] = test system: Escherichia coli; assay: Antimicrobial activity against Escherichia coli TOP10 harboring pADC-33 plasmid by Etest method; format: functional
[22] = test system: Escherichia coli; assay: Antimicrobial activity against Escherichia coli TOP10 harboring pADC-50 plasmid by Etest method in presence of Tazobactam; format: functional
[23] = test system: Acinetobacter baumannii; assay: Antimicrobial activity against Acinetobacter baumannii KI by Etest method in presence of Tazobactam; format: functional
[24] = test system: Escherichia coli; assay: Antimicrobial activity against Escherichia coli TOP10 harboring pTOPO plasmid by Etest method; format: functional
[25] = test system: Escherichia coli; assay: Antimicrobial activity against Escherichia coli TOP10 harboring pADC-33 plasmid carrying entire blaAmpC gene with alanine residue deletion at 215 position and R210P substitution by Etest method; format: functional
[26] = test system: Acinetobacter baumannii; assay: Antimicrobial activity against Acinetobacter baumannii KI by Etest method; format: functional
[27] = test system: Escherichia coli; assay: Antimicrobial activity against Escherichia coli TOP10 harboring pADC-11 plasmid carrying entire blaAmpC gene by Etest method in presence of Tazobactam; format: functional
[28] = test system: CCN1CCN(C(=O)N[C@@H](C(=O)N[C@@H]2C(=O)N3[C@@H]2SC(C)(C)[C@@H]3C(=O)O)c2ccccc2)C(=O)C1=O; assay: (§1) Activity of Acinetobacter baumannii ADC-11 beta-lactamase
[29] = test system: O=C(Cc1cccs1)N[C@@H]1C(=O)N2C(C(=O)[O-])=C(C[n+]3ccccc3)CS[C@H]12; assay: as §1
[30] = test system: CC(=O)OCC1=C(C(=O)O)N2C(=O)[C@@H](NC(=O)Cc3cccs3)[C@H]2SC1; assay: as §1
[31] = test system: CO/N=C(\C(=O)N[C@@H]1C(=O)N2C(C(=O)O)=C(COC(C)=O)CS[C@H]12)c1csc(N)n1; assay: as §1
[32] = test system: CO/N=C(\C(=O)N[C@@H]1C(=O)N2C(C(=O)[O-])=C(C[n+]3cccc4c3CCC4)CS[C@H]12)c1csc(N)n1; assay: as §1
[33] = test system: CC(C)(O/N=C(\C(=O)N[C@@H]1C(=O)N2C(C(=O)[O-])=C(C[n+]3ccccc3)CS[C@H]12)c1csc(N)n1)C(=O)O; assay: as §1
[34] = test system: CC1(C)S[C@@H]2[C@H](NC(=O)[C@H](N)c3ccccc3)C(=O)N2[C@H]1C(=O)O; assay: as §1
[35] = test system: CC1(C)S[C@@H]2[C@H](NC(=O)Cc3ccccc3)C(=O)N2[C@H]1C(=O)O; assay: as §1
[36] = test system: CO[C@@]1(NC(=O)Cc2cccs2)C(=O)N2C(C(=O)O)=C(COC(N)=O)CS[C@@H]21; assay: Ratio of Kcat to Ki for Acinetobacter baumannii ADC-11 beta-lactamase
[37] = test system: CCN1CCN(C(=O)N[C@@H](C(=O)N[C@@H]2C(=O)N3[C@@H]2SC(C)(C)[C@@H]3C(=O)O)c2ccccc2)C(=O)C1=O; assay: (§2) Ratio of Kcat to Km for Acinetobacter baumannii ADC-11 beta-lactamase
[38] = test system: CO/N=C(\C(=O)N[C@@H]1C(=O)N2C(C(=O)[O-])=C(C[n+]3cccc4c3CCC4)CS[C@H]12)c1csc(N)n1; assay: as §2
[39] = test system: CC(C)(O/N=C(\C(=O)N[C@@H]1C(=O)N2C(C(=O)[O-])=C(C[n+]3ccccc3)CS[C@H]12)c1csc(N)n1)C(=O)O; assay: as §2
[40] = test system: CC1(C)S[C@@H]2[C@H](NC(=O)[C@H](N)c3ccccc3)C(=O)N2[C@H]1C(=O)O; assay: as §2
[41] = test system: CC1(C)S[C@@H]2[C@H](NC(=O)Cc3ccccc3)C(=O)N2[C@H]1C(=O)O; assay: as §2

CCN1CCN(C(=O)N[C@@H](C(=O)N[C@@H]2C(=O)N3[C@@H]2SC(C)(C)[C@@H]3C(=O)O)c2ccccc2)C(=O)C1=O [PIPERACILLIN]
MIC [1]: > 256 mg/L | MIC [2]: 256 mg/L | kcat/Km [3]: 1.2e+06 M⁻¹ s⁻¹ | MIC [4]: 256 mg/L | MIC [5]: 1 mg/L | MIC [6]: 32 mg/L | MIC [7]: > 256 mg/L | MIC [8]: > 256 mg/L | MIC [9]: > 256 mg/L | MIC [10]: 8 mg/L (≈ 15.5 µM) | MIC [11]: 16 mg/L (≈ 30.9 µM) | MIC [12]: 4 mg/L | MIC [13]: 16 mg/L (≈ 30.9 µM) | MIC [14]: 128 mg/L | MIC [15]: 128 mg/L | MIC [16]: > 256 mg/L | MIC [17]: 256 mg/L | MIC [18]: > 256 mg/L | MIC [19]: > 256 mg/L | MIC [20]: 8 mg/L | MIC [21]: 32 mg/L (≈ 61.8 µM) | MIC [22]: 16 mg/L | MIC [23]: 128 mg/L | MIC [24]: 1 mg/L (≈ 1.93 µM) | MIC [25]: > 256 mg/L | MIC [26]: > 256 mg/L | MIC [27]: 128 mg/L

ADC-11 (Acinetobacter baumannii) (from UniProt D6NSM8)
kcat [28]: 5 s⁻¹ | kcat [29]: 600 s⁻¹ | Km [30]: 210 µM | kcat [30]: 550 s⁻¹ | kcat [31]: 0.2 s⁻¹ | Km [32]: 1700 µM | kcat [32]: 8 s⁻¹ | Km [33]: 10 µM | kcat [33]: 0.01 s⁻¹ | Km [34]: 7 µM | kcat [34]: 5 s⁻¹ | Km [35]: 12 µM | kcat [35]: 45 s⁻¹ | kcat/Km [36]: 3e+06 M⁻¹ s⁻¹ | kcat/Km [37]: 200000 M⁻¹ s⁻¹ | kcat/Km [38]: 4000 M⁻¹ s⁻¹ | kcat/Km [39]: 1000 M⁻¹ s⁻¹ | kcat/Km [40]: 1e+06 M⁻¹ s⁻¹ | kcat/Km [41]: 4e+06 M⁻¹ s⁻¹
